Measured values from ChEMBL document CHEMBL5308504, “Tm Shift (DSF) assay results for EUbOPEN Chemogenomics Library” (2023).
Where “and” joins values, the source holds several entries; their conditions need not be identical. Equal values may be shown once.

What was measured:
Peregrin (Homo sapiens) = target: T1, Peregrin (Homo sapiens) (UniProt P55201); details: Compound concentration 20.0 uM, Protein concentration 2.0 uM, Result type QC Liability
T1 sequence (whole entry): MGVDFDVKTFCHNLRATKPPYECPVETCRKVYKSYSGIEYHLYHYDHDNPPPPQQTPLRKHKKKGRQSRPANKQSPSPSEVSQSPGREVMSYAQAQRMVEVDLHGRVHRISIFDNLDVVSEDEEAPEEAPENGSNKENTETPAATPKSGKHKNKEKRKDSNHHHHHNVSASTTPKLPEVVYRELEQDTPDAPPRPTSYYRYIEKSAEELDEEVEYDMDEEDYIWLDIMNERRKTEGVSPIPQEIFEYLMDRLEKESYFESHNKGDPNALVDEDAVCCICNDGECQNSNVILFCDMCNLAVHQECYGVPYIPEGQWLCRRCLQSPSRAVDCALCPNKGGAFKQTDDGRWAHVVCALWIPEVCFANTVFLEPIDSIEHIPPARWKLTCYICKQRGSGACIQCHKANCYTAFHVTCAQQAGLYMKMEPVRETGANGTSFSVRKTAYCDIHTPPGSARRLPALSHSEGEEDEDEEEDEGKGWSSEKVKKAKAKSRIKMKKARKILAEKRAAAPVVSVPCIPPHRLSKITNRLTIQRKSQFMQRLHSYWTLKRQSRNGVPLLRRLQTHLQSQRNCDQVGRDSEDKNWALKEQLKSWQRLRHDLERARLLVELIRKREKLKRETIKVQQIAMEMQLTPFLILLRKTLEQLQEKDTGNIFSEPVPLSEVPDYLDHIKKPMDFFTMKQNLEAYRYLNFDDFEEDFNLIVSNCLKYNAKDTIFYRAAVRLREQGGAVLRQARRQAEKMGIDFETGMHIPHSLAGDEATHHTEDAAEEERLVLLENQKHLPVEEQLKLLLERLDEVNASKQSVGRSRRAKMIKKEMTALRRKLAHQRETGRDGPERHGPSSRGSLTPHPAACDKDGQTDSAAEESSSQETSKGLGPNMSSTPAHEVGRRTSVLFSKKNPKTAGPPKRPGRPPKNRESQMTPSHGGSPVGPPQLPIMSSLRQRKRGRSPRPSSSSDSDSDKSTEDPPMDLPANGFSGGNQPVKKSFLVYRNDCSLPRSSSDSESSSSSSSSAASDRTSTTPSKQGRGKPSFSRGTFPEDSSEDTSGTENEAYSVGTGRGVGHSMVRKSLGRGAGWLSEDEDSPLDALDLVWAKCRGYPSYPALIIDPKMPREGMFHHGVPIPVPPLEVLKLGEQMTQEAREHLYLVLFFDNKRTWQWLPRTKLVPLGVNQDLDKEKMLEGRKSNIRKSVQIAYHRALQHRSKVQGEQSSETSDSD

[1] = target: Fibroblast growth factor receptor 3 (Homo sapiens) (UniProt P22607); details: Compound concentration 20.0 uM, Protein concentration 2.0 uM, Result type QC Liability
Fibroblast growth factor receptor 3 (Homo sapiens), sequence (P22607 23-806 limits assumed): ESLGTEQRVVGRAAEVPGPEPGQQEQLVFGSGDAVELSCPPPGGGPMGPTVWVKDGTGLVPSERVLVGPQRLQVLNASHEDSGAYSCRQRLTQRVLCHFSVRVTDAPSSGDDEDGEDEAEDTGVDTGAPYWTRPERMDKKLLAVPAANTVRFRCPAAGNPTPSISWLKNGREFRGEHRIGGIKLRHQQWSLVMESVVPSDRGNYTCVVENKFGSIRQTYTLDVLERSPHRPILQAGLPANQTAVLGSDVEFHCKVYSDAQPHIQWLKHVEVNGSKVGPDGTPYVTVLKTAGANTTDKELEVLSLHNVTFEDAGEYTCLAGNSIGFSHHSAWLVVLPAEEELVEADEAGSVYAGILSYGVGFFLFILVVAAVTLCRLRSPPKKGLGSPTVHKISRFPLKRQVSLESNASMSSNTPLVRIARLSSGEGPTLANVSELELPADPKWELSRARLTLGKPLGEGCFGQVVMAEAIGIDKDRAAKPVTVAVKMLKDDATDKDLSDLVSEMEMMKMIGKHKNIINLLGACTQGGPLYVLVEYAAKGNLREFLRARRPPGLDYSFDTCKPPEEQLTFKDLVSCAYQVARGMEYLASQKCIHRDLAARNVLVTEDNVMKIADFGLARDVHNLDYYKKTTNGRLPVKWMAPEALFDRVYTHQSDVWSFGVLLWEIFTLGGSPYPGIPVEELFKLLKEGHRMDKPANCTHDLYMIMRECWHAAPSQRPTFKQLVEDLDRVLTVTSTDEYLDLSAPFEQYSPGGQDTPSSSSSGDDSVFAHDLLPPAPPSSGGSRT
Description: Thermal Shift Assay. Domain: start/stop: P449-E759

| Compound | ΔTm (Peregrin (Homo sapiens)) | ΔTm [1] |
| --- | --- | --- |
| NC(=O)OC[C@H](NC(=O)Cn1nc(-c2ccc(Cl)cc2)n(C[C@H](O)C(F)(F)F)c1=O)c1cccc(C(F)(F)F)c1 | -3.24 °C | 1.19 °C |
| CN1CCN(c2ccc(/C=C(\C#N)c3ccccc3Br)cc2)CC1 | -2.48 °C | 1.23 °C |
| Cn1nc(C(=O)NCc2ccc(C(=O)O)cc2)cc1-c1ccc2[nH]ccc2c1 | -1.95 °C | 0.9 °C |
| COc1cc(-c2cc3ncccc3c(OC[C@H]3CNC(=O)C3)n2)cc(OC)c1OC1CCOCC1 | -1.09 °C | 1.16 °C |
| CN(C)c1ncc2cc(-c3ccc(-c4ncccc4F)cc3Cl)c(=O)n(C[C@H]3OC[C@H](N)CO3)c2n1 | -1.55 °C | -0.14 °C |
| CN[C@@H]1CC[C@@H](c2ccc(Cl)c(Cl)c2)c2ccccc21 | -1.62 °C | 0.61 °C |
| CC(=O)c1c(C)c2cnc(Nc3ccn(C)n3)nc2n(C2CCCC2)c1=O | -0.34 °C | -0.69 °C |
| CC(=O)Nc1c(F)cc(C(=O)N[C@H]2CC[C@H](O)CC2)cc1O[C@@H](C)c1ccccc1 | -0.36 °C | 0.45 °C |
| NC(=O)c1ccc(-c2nc(-c3ccc4c(c3)OCCO4)c(-c3ccccn3)[nH]2)cc1 | 0.84 °C | 1.37 °C |
| CC(=O)Nc1cccc(-n2c(=O)n(C3CC3)c(=O)c3c(Nc4ccc(I)cc4F)n(C)c(=O)c(C)c32)c1 | -0.16 °C | 0.38 °C |
| CC(=O)c1c(C)c2cnc(Nc3ccc(N4CCNCC4)cn3)nc2n(C2CCCC2)c1=O | -1.97 °C and -1.31 °C | 0.56 °C and 0.64 °C |
| CCC(C(=O)Nc1ccc(-c2cc3ccccc3s2)c(C(N)=O)c1)c1nccs1 (stereo not drawn) | -1.09 °C | 0.48 °C |
| CCNC1=N[C@@H]2[C@@H](O)[C@H](O)[C@@H](CO)O[C@@H]2S1 | 0.02 °C | 0.73 °C |
| COc1cc2c(cc1CC=C(C)C)C(=O)C[C@@H](c1ccc(O)cc1)O2 | 1.25 °C | 2.85 °C |
| CN1CC(=O)N(C)c2cnc(Nc3ccc(NC(=O)Nc4cccc(C(=O)O)c4)cc3)nc21 | -0.81 °C | 1.19 °C |
| COc1cc(-c2cncc(-c3ccc(N4CCN(C(C)C)CC4)cc3)c2C)cc(F)c1C(N)=O | -1.51 °C | 0.64 °C |
| COc1cc2c(NC3CCN(C(C)C)CC3)nc(C3CCCCC3)nc2cc1OCCCN1CCCC1 | -0.55 °C | 0.95 °C |
| CC(=O)Nc1ncc(CN2CCC[C@H](Cc3cc(C)nc(C)c3)C2)s1 | 0.17 °C | 1 °C |
| CNC(=O)c1cc(C(=O)N[C@H]2[C@@H]3COC[C@@H]32)cc2c1O[C@@H](CF)[C@@H]2c1ccccc1 | -1.16 °C | 0.48 °C |
| Cn1c(C2(NC(=O)c3ccc4c(C5CCCC5)c(-c5ncc(Br)cn5)n(C)c4c3)CCC2)nc2ccc(/C=C/C(=O)O)cc21 | -4.81 °C and -4.1 °C | -0.02 °C and -0.48 °C |
| C/C(=C\C(=O)Nc1ccccc1C(=O)O)c1ccc2ccccc2c1 | -1.56 °C | 1.14 °C |
| CCn1c(-c2nonc2N)nc2ccccc21 | -1.24 °C | 0.81 °C |
| CO[C@@H](C)CN1CC[C@]2(C)c3cc(O)ccc3C[C@H]1C2(C)C | -3.01 °C | 1.13 °C |
| COc1cnccc1Nc1nc(-c2nn(Cc3c(F)cc(OCCO)cc3F)c3ccccc23)ncc1OC | -6.89 °C | -7.58 °C |
| C[C@H](CCOc1cccc(CC(=O)O)c1)N(Cc1cccc(C(F)(F)F)c1Cl)CC(c1ccccc1)c1ccccc1 | -4.82 °C | 2.11 °C |
| C=C1/C(=C\C=C2/CCC[C@]3(C)[C@@H]([C@H](C)CCCC(C)(C)O)CC[C@@H]23)C[C@@H](O)C[C@@H]1O | -2.59 °C | 1.25 °C |
| CCC(F)(F)c1cc(N2CCC(S(C)(=O)=O)CC2)nc2sc(C(N)=O)c(N)c12 | -2.52 °C and -1.37 °C and -0.65 °C | 0.83 °C and 0.75 °C and 1.17 °C |

| Compound | ΔTm (Peregrin (Homo sapiens)) | ΔTm [1] |
| --- | --- | --- |
| C=CC1C[C@]1(NC(=O)[C@@H]1C[C@@H](Oc2cc(-c3csc(NC(=O)C(C)C)n3)nc3c(Br)c(OC)ccc23)CN1C(=O)[C@@H](NC(=O)OC1CCCC1)C(C)(C)C)C(=O)O (stereo partly drawn) | -2.59 °C | 1.41 °C |
| O=C(N[C@H](Cc1ccccc1)C(=O)O)c1cccc(OCc2cccnc2)c1 | -2.18 °C | 0.53 °C |
| COc1cc2ncnc(Nc3ccc4c(cnn4Cc4ccccc4)c3)c2cc1OC | -1.65 °C | 1.75 °C |
| CN(C)C/C=C/C(=O)Nc1ccc(C(=O)Nc2cccc(Nc3ncc(Cl)c(-c4c[nH]c5ccccc45)n3)c2)cc1 | 0.03 °C | 6.9 °C |
| CC(C)c1nc2c(c3c1[C@@H](c1ccc(C(F)(F)F)cc1)OC31CCOCC1)[C@@H](O)CC(C)(C)C2 | -3.83 °C | 0.98 °C |
| CNc1nc(-c2cc(C(=O)N3CCN(Cc4ccc(Cl)cc4)CC3)c(Cl)cn2)cs1 | -1.62 °C | 0.37 °C |
| C[C@@H]1CCNC(=O)c2cc3ccc(C(=O)Nc4nc5ccccc5n4CCCN(C)C)cc3n21 | -2.35 °C | 2.76 °C |
| CCc1ncnc(N2CCN(C(C)=O)CC2)c1C#Cc1ccc(N)nc1 | -1.29 °C | 0.7 °C |
| CCS(=O)(=O)c1ccc(OC)c(Nc2ncc(-c3cccc(F)c3)o2)c1 | -1.63 °C | 3.6 °C |
| Nc1c(CC(=O)O)cccc1C(=O)c1ccc(Br)cc1 | -2.36 °C | 0.57 °C |
| COc1ccc(C(=O)N[C@H](C)c2cccc(C(=O)Nc3nc4c(s3)CN(C)CC4)c2)cc1C | -0.23 °C | 0.97 °C |
| CC[C@@H](CO)Nc1nc(Nc2cccc(NC(=O)C(C)(C)C)c2)ncc1F | -1.26 °C | 2.58 °C |
| Clc1ccc(-c2nc3sccn3c2/C=N/OCc2ccc(Cl)c(Cl)c2)cc1 | -0.92 °C | 0.55 °C |
| COc1cc2nc([C@@H]3CCCS(=O)(=O)C3)n(C)c2cc1NC(=O)c1cccc(C(C)(F)F)n1 | -2.41 °C | 0.66 °C |
| Cc1csc(S(=O)(=O)N(CC(C)C)c2cc3c(cc2OCc2ccc(C(=O)O)cc2)CCC3)n1 | -3.17 °C | 0.12 °C |
| CN(C)c1ccc(-c2cc3ncccc3c(OCCCCO)n2)cc1 | -2.48 °C | 3.37 °C |
| CCn1c(=O)c2c(C)c(C(=O)N3CCC(O)CC3)sc2n(CCC(F)(F)F)c1=O | -1.95 °C | 0.45 °C |
| CCCCC/C=C/C=C1/C(=O)C=C[C@@H]1C/C=C\CCCC(=O)O | -3.72 °C | 0.72 °C |
| O=C(Cc1ccccc1)Nc1nnc(N2C[C@H]3C[C@@H]2CN3c2cccnn2)s1 | -0.88 °C | 0.46 °C |
| CN(C)C(=O)Cn1cc(-c2nc([C@@](C)(c3ccc(-c4cnc(N)nc4)cc3)C3CC3)no2)cn1 | -1.93 °C | 0.61 °C |
| O=C(O)c1ccc2c(c1)nc(NCc1ccccc1)c1ncncc12 | -1.74 °C | 0.75 °C |
| Cc1ncc(C(=O)Nc2cc(C(C)(C)C)on2)cc1-n1cc(-c2cnn(C)c2C)nn1 | 0.08 °C | 2.95 °C |
| CN(C)CCCNc1ccnc(Nc2cccc(Cl)c2)n1 | -1.77 °C | 1.43 °C |
| Cn1c(C2(NC(=O)c3ccc(NCC4CCCCC4)nc3)CCC2)nc2ccc(/C=C/C(=O)O)cc21 | -2.12 °C | 1.03 °C |
| CC(C)(c1ccc(OCc2cccc(COc3ccc(C(=N)N)cc3)c2)cc1)c1ccc(O[C@@H]2O[C@H](C(=O)O)[C@@H](O)[C@H](O)[C@H]2O)cc1 | -6.79 °C | -5.02 °C |
| C[C@H]1CN(C2COC2)CCN1c1ccc(Nc2cc(-c3ccnc(N4CCn5c(cc6c5CC(C)(C)C6)C4=O)c3CO)cn(C)c2=O)nc1 | -2.12 °C | 4.28 °C |
| COc1ccc(-c2c(-c3ccccc3)oc3ncnc(O[C@H](C)CCCCC(=O)O)c23)cc1 | -6.64 °C | -0.48 °C |
